The numbers were not newly measured in patent US8981059B2, “Platelet aggregation inducing substance” (JNC Corporation, priority 2006, dated 2015), which cites them from elsewhere.

The series deals with platelets. To be noted: as disclosed in the non-patent documents.

Take “-(Gly-Pro-Hyp)10- [polypeptide -(Gly-Pro-Hyp)10-]”: the “platelet aggregation inducing activity” value is recorded as “low”.
